From patent US20260053171A1, “METHANOGEN INHIBITORS” (AGRIZERONZ LIMITED PARTNERSHIP, priority 2022, published 2026)

Tested on: methane production in rumen fluid
Experiment: Rumen in vitro (RIV) assay, methane production from rumen fluid incubations
Assay type: cell-based, cattle
Conditions: for inhibition (methane, RIV positive control): 30 μM
How it was run: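 Rumen fluid from two fistulated cattle diluted 12 ml in 48 ml buffer with ryegrass substrate, incubated in sealed bottles at 39° C for 24-48 h in duplicate. Inhibitors added in DMF (stocks 1000-fold above highest assay level); total gas, methane and H2 measured automatically; 30 μM BES positive control, no-inhibitor negative control.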

[1] = Bos taurus, read-out: RIV % methane reduction +/− SD

Structure (SMILES) | inhibition at 10 µM [1] | inhibition at 50 µM [1] | further results
O=S(=O)(O)CCBr [BES, bromoethanesulfonate, reference compound] |  |  | inhibition (methane, RIV positive control) (at 10 hours): 70.5%; inhibition (methane, RIV positive control) (at 18 hours): 55.6%
Cc1ccccc1S(=O)(=O)NC(=O)CCC(=O)N1N=C(c2ccc(Cl)cc2)CC1c1ccc2nccnc2c1 (stereo not drawn) [Compound 124, 4-(3-(4-Chlorophenyl)-5-(quinoxalin-6-yl)-4,5-dihydro-1H-pyrazol-1-yl)-4-oxo-N-(o-tolylsulfonyl) butanamide] | 12.7 ± 0.8% |  | 
CS(=O)(=O)NC(=O)c1cccc(N2N=C(c3ccc(Cl)cc3)CC2c2ccc3nccnc3c2)c1 (stereo not drawn) [Compound 72, 3-(3-(4-Chlorophenyl)-5-(quinoxalin-6-yl)-4,5-dihydro-1H-pyrazol-1-yl)-N-(methylsulfonyl)benzamide] | 82.5 ± 2.5% |  | inhibition at 2 µM (Bos taurus, 2 μM, read-out: RIV % methane reduction +/− SD): 14.3 ± 4.7%
O=C(O)c1cccc(N2N=C(c3cccc(-c4ccccc4)c3)CC2c2ccc3nccnc3c2)c1 (stereo not drawn) [Compound 114, 3-(3-([1,1′-Biphenyl]-3-yl)-5-(quinoxalin-6-yl)-4,5-dihydro-1H-pyrazol-1-yl)benzoic acid] | 58.3 ± 16.6% |  | 
O=C(O)CCC(=O)N1N=C(c2ccc(Cl)c(Cl)c2)CC1c1ccc2nccnc2c1 (stereo not drawn) [Compound 11, 4-(3-(3,4-Dichlorophenyl)-5-(quinoxalin-6-yl)-4,5-dihydro-1H-pyrazol-1-yl)-4-oxobutanoic acid] |  | 62.8 ± 3.4% | 
O=C(O)CCC(=O)N1N=C(c2ccc(OC(F)(F)F)cc2)CC1c1ccc2nccnc2c1 (stereo not drawn) [Compound 8, 4-Oxo-4-(5-(quinoxalin-6-yl)-3-(4-(trifluoromethoxy)phenyl)-4,5-dihydro-1H-pyrazol-1-yl)butanoic acid] | 22.6 ± 2.8% | 75.2 ± 1.6% | 
